The test deals with muscular bilayer tissues of biohybrid fish (human stem cell-derived CMs). Put plainly: Antagonistic contraction and swimming performance of self-paced biohybrid fish treated with stretch-activated channel blockers. It counts as cell-based. Conditions: for Spontaneous frequencies of treated muscular bilayer tissues (frequency-domain analysis of tail-beat angle) / Empirical probability of antagonistic contraction / Moving (swimming) speed: 250 μM streptomycin or 100 μM Gd3+; for Spontaneous frequencies of treated muscular bilayer tissues (frequency-domain analysis of tail-beat angle): power spectral density; for Empirical probability of antagonistic contraction / Moving (swimming) speed: self-paced biohybrid fish, at least 24 hours. How it is done:
The biohybrid fish was placed in Tyrode's solution (1.8 mM CaCl2, 5 mM glucose, 5 mM Hepes, 1 mM MgCl2, 5.4 mM KCl, 135 mM NaCl, and 0.33 mM NaH2PO4 in deionized water, pH 7.4, at 37° C.; Sigma Aldrich, St. Louis, Mo.) in a 22 cm square chamber (VWR International, Radnor, Pa.) on a hotplate (VWR International, Radnor, Pa.) and temperature was maintained at 35° C. to 37° C. The recording of swimming performance of biohybrid fish was filmed with a sCMOS camera (Pco.edge, PCO AG, Germany) coupled with a zoom camera lens (Thorlabs Inc, Newton, N.J.) at 50 frames per second or a single-lens recorder (AXP55 4K Handycam, Sony, Japan) with a 26.8 mm wide-angle lens at 50 frames per second.
To check the effect of mechanical signaling on the antagonistic contraction of muscular bilayer tissues, the biohybrid fish were treated with 250 μM streptomycin or 100 μM Gd^3+ (both from Sigma-Aldrich, St. Louis, Mo.) before recording, streptomycin or Gd^3+ for at least 24 hours.
Digital videos recorded during locomotion experiments were converted to image stacks using a custom-made Matlab program (24) (R2020b, Mathworks, Natick, Mass.). The head, body, and tail positions of the biohybrid fish were tracked using an image processing software (ImageJ, NIH, Bethesda, Md.). The moving distance of the biohybrid fish was measured during each tail-beat cycle, and the swimming speed was calculated by dividing the cumulative distance travelled by the total time. Tail-beat amplitude was measured as the distance between maximum right and left excursions. Tail-beat angle (θ) was calculated as the body angle difference between chord lines of its anterior body and caudal fin at the maximum right and left excursions. Antagonistic contraction was determined by checking whether a muscle contraction induced the subsequent contraction of the opposite side muscle with any delay or not. The empirical probability of antagonistic contraction was determined by dividing the number of antagonistic contractions by the total number of contractions.

[1] abbreviates: after Gd3+ treatment versus before.

SMILES strings stand for the structures. “Also recorded” adds a separate entry of the source.

Take `[Gd+3]` [Gd^3+, gadolinium]: the “Spontaneous frequencies of treated muscular bilayer tissues (frequency-domain analysis of tail-beat angle)” value was “not harmonic”, the “Empirical probability of antagonistic contraction” value (from here on “Empirical probability”) was “disrupted antagonistic contraction; also recorded: sensitive; also recorded: significantly decreased” and the “Moving (swimming) speed” value is reported as “reduced”. Under setting [1], the “Reduction in Re (Reynolds number)” value was determined as 80.8% and the “Reduction in Sw (Swimming number)” value stood at 40.6%. For the setting “listed as Gd3+”, the “Empirical probability” value was “reduced the chance of antagonistic muscle contraction”.
For the molecule `[H]/N=C(/N)N[C@H]1[C@H](O)[C@@H](O)[C@H](O[C@@H]2O[C@@H](C)[C@](O)(C=O)[C@H]2O[C@@H]2O[C@@H](CO)[C@H](O)[C@@H](O)[C@@H]2NC)[C@@H](N/C(N)=N\[H])[C@@H]1O` [streptomycin], the “Spontaneous frequencies of treated muscular bilayer tissues (frequency-domain analysis of tail-beat angle)” value is recorded as “not harmonic”, the “Empirical probability” value is “disrupted antagonistic contractions; also recorded: sensitive; also recorded: reduced the chance of antagonistic muscle contraction; also recorded: significantly decreased” and the “Moving (swimming) speed” value is on record as “reduced”.

Values taken from patent US20230243812A1, “[…] TISSUE […] METHODS FOR FORMATION AND USE THEREOF” (President and Fellows of Harvard College, priority 2022, published 2023).
